The values below come from ChEMBL document CHEMBL3639064, “Piperazine compound capable of inhibiting prostaglandin D synthase” (2014).

As usually defined, the IC50 is the concentration needed to halve the response being measured.

The structures appear in SMILES notation.

The target of the test is Hematopoietic prostaglandin D synthase (Homo sapiens, UniProt O60760). Description: Inhibition Assay: The test was carried out according to the method of Urade, Y. et al. (J. Biol. Chem., 262, 3820-3825, (1987)). More specifically, the reaction mixture (49 uL) containing 100 mM Tris-HCl (pH 8.0), 1 mM reduced glutathione, 0.1 mg/mL gamma-globulin, and human H-PGDS (q.s.), and a compound (final concentration: 0.01-100 uM) was preincubated at 25 C. for 5 minutes. Note that a DMSO solution (final concentration: 1%) was added to the solvent control group. Subsequently, 1 uL of [14C] prostaglandin H2 (final concentration: 10 uM) was added to start the reaction. One minute after the start of the reaction, 250 uL of a reaction stopper solution (diethylether/methanol/1 M citric acid (30/4/1) at a temperature of -20 C. was added to stop the reaction. After the reaction was stopped, 50 uL of the upper layer portion (organic solvent phase) was applied to a TLC plate and developed at -20 C. for 45 minutes.
Chain of Hematopoietic prostaglandin D synthase (O60760 whole entry): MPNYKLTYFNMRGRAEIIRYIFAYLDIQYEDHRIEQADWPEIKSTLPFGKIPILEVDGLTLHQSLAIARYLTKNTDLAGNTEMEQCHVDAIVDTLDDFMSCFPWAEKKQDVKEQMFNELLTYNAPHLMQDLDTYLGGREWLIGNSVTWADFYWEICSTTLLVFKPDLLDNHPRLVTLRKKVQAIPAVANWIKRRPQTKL
For the compound `Cn1cccc1C(=O)N1CCN(C(=O)Nc2ccc(N3CCC(CCn4ccnn4)CC3)cc2)CC1`, the IC50 amounted to 71 nM. To `Cn1cccc1C(=O)N1CCN(C(=O)Nc2ccc(N3CCC(CN4CCOCC4)CC3)cc2)CC1` belongs 54 nM; to `Cn1cccc1C(=O)N1CCN(C(=O)Nc2ccc(N3CCC(CCn4cncn4)C3)cc2)CC1` (stereo unspecified), 67 nM.

Regarding `Cn1cccc1C(=O)N1CCN(C(=O)Nc2ccc(N3CCC(CCN4CCOCC4)CC3)cc2)CC1`, the IC50 was found to be 43 nM. For `Cc1nc(C)n(CCC2CCN(c3ccc(NC(=O)N4CCN(C(=O)c5cccn5C)CC4)cc3)CC2)n1` the value was 85 nM. For `Cn1cccc1C(=O)N1CCN(C(=O)Nc2ccc(N3CCC(CCn4cccn4)CC3)cc2)CC1` the value was 40 nM. Take `Cn1cccc1C(=O)N1CCN(C(=O)Nc2ccc(N3CCC(CCCn4ccnn4)CC3)cc2)CC1`: the IC50 turned out to be 37 nM. To `Cn1cccc1C(=O)N1CCN(C(=O)Nc2ccc(N3CCC(C(=O)N4CCCCC4)CC3)cc2)CC1` belongs 32 nM; to `CN1CCN(C(=O)C2CCN(c3ccc(NC(=O)N4CCN(C(=O)c5cccn5C)CC4)cc3)CC2)CC1`, 60 nM.

`Cn1cccc1C(=O)N1CCN(C(=O)Nc2ccc(N3CCC(C(=O)NCCN4CCOCC4)CC3)cc2)CC1`: the IC50 was 59 nM. To `Cn1cccc1C(=O)N1CCN(C(=O)Nc2ccc(N3CCC(C(=O)NCc4cccnc4)CC3)cc2)CC1` belongs 60 nM.
